Data from ChEMBL document CHEMBL2331223, “Synthesis of 2-aminomethyl-4-phenyl-1-azabicyclo[2.2.1]heptanes via LiAlH₄-induced reductive cyclization of 2-(4-chloro-2-cyano-2-phenylbutyl)aziridines and evaluation of their antimalarial activity” (Bioorg Med Chem Lett, 2013).

Tests used:
Plasmodium falciparum [1] = assay: Antimalarial activity against chloroquine-resistant Plasmodium falciparum Dd2; assay type: functional, organism-based
Plasmodium falciparum [2] = assay: Antimalarial activity against chloroquine-sensitive Plasmodium falciparum D10; assay type: functional, organism-based
Plasmodium falciparum [3] = assay: Resistant index, ratio of IC50 for chloroquine-resistant Plasmodium falciparum Dd2 to IC50 for chloroquine-sensitive Plasmodium falciparum D10; assay type: functional
CHO = assay: Cytotoxicity against CHO cells by MTT assay; assay type: cell-based; conditions: Cricetulus griseus
[4] = Selectivity index, ratio of IC50 for CHO cells to IC50 for chloroquine-sensitive Plasmodium falciparum D10; assay type: toxicity, cell-based; conditions: hamster, read-out: Ratio IC50

SMILES	IC50 (Plasmodium falciparum [1])	IC50 (Plasmodium falciparum [2])	Ratio IC50 (Plasmodium falciparum [3])	IC50 (CHO)	selectivity ratio [4]
c1ccc(CNC[C@H]2C[C@@]3(c4ccccc4)CCN2C3)cc1 (relative stereo)	78.5 µM	18.4 µM	4.4	> 300 µM	–
CC[C@H]1CN2CCc3cc(OC)c(OC)cc3[C@@H]2C[C@@H]1C[C@H]1NCCc2cc(OC)c(OC)cc21 [EMETINE]	–	–	–	0.33 µM	–
Cc1ccc(CNC[C@@H]2C[C@@]3(c4ccccc4)CCN2C3)cc1 (relative stereo)	10 µM	0.81 µM	12.5	160 µM	200
Cc1ccc(CNC[C@H]2C[C@@]3(c4ccccc4)CCN2C3)cc1 (relative stereo)	15.9 µM	10.3 µM	1.5	163 µM	15.7
Clc1ccc(CNC[C@H]2C[C@@]3(c4ccccc4)CCN2C3)cc1 (relative stereo)	11.8 µM	6.01 µM	2	90.4 µM	15.1
c1ccc(CNC[C@@H]2C[C@@]3(c4ccccc4)CCN2C3)cc1 (relative stereo)	24.2 µM	2.63 µM	9.6	231 µM	91.2
Clc1ccc(CNC[C@@H]2C[C@@]3(c4ccccc4)CCN2C3)cc1 (relative stereo)	2.4 µM	1.39 µM	1.7	71.2 µM	51.1
